Where “and” joins values, the source holds several entries; their conditions need not be identical. Equal entries are not always repeated. ± gives the expanded uncertainty stated by the source.
How the values were obtained:
[1] = molar enthalpy of vaporization or sublimation; conditions: 298.15 K; Crystal; Calvet microcalorimetry
[2] = Crystal, Calculated from knudsen effusion weight loss

Structure (SMILES) | molar enthalpy [1] | vapor or sublimation pressure ([2]; 359.27 K) | vapor or sublimation pressure ([2]; 361.19 K) | vapor or sublimation pressure ([2]; 363.12 K) | vapor or sublimation pressure ([2]; 365.29 K) | vapor or sublimation pressure ([2]; 367.2 K) | vapor or sublimation pressure ([2]; 369.12 K) | vapor or sublimation pressure ([2]; 371.29 K) | vapor or sublimation pressure ([2]; 373.18 K) | vapor or sublimation pressure ([2]; 375.1 K) | vapor or sublimation pressure ([2]; 349.27 K) | vapor or sublimation pressure ([2]; 351.21 K) | vapor or sublimation pressure ([2]; 353.12 K) | vapor or sublimation pressure ([2]; 355.13 K) | vapor or sublimation pressure ([2]; 357.21 K) | vapor or sublimation pressure ([2]; 359.26 K) | vapor or sublimation pressure ([2]; 361.26 K) | vapor or sublimation pressure ([2]; 363.2 K) | vapor or sublimation pressure ([2]; 365.12 K)
O=C(c1ccccc1)c1ccc([N+](=O)[O-])cc1 [4-nitrobenzophenone] | 29.2 ± 1.29 kcal/mol | 0.00018 ± 9e-06 kPa and 0.000177 ± 9e-06 kPa and 0.000174 ± 9e-06 kPa | 0.000215 ± 1.1e-05 kPa and 0.00021 ± 1.1e-05 kPa and 0.000214 ± 1.1e-05 kPa | 0.000269 ± 1.3e-05 kPa and 0.000265 ± 1.3e-05 kPa and 0.000259 ± 1.3e-05 kPa | 0.000344 ± 1.7e-05 kPa and 0.000342 ± 1.7e-05 kPa | 0.000422 ± 2.1e-05 kPa and 0.00042 ± 2.1e-05 kPa and 0.000427 ± 2.1e-05 kPa | 0.000512 ± 2.6e-05 kPa and 0.000509 ± 2.5e-05 kPa and 0.000523 ± 2.6e-05 kPa | 0.000652 ± 3.3e-05 kPa and 0.000645 ± 3.2e-05 kPa and 0.000657 ± 3.3e-05 kPa | 0.000767 ± 3.8e-05 kPa and 0.000769 ± 3.8e-05 kPa and 0.000791 ± 4e-05 kPa | 0.000955 ± 4.8e-05 kPa and 0.000941 ± 4.7e-05 kPa and 0.00096 ± 4.8e-05 kPa |  |  |  |  |  |  |  |  | 
O=C(c1cccc([N+](=O)[O-])c1)c1cccc([N+](=O)[O-])c1 [3,3'-dinitrobenzophenone] | 35.2 ± 1.86 kcal/mol |  |  |  |  |  |  |  |  |  |  |  |  |  |  |  |  |  | 
O=C(c1ccccc1)c1cccc([N+](=O)[O-])c1 [3-nitrobenzophenone] | 29.5 ± 1.15 kcal/mol |  |  |  |  |  |  |  |  |  | 0.00016 ± 8e-06 kPa and 0.000161 ± 8e-06 kPa and 0.000162 ± 8e-06 kPa | 0.000194 ± 1e-05 kPa and 0.000198 ± 1e-05 kPa | 0.000248 ± 1.2e-05 kPa and 0.000245 ± 1.2e-05 kPa and 0.000244 ± 1.2e-05 kPa | 0.000315 ± 1.6e-05 kPa and 0.000308 ± 1.5e-05 kPa | 0.000399 ± 2e-05 kPa and 0.000396 ± 2e-05 kPa and 0.000395 ± 2e-05 kPa | 0.000506 ± 2.5e-05 kPa and 0.000508 ± 2.5e-05 kPa | 0.000613 ± 3.1e-05 kPa and 0.00061 ± 3.1e-05 kPa and 0.000614 ± 3.1e-05 kPa | 0.000758 ± 3.8e-05 kPa and 0.000749 ± 3.8e-05 kPa and 0.000771 ± 3.9e-05 kPa | 0.000936 ± 4.7e-05 kPa and 0.000935 ± 4.7e-05 kPa and 0.000946 ± 4.7e-05 kPa
